Assay type in all cases: biochemical
Assay [1] addresses T1, amyloid-beta (Aβ) (Homo sapiens, UniProt P05067). The assay can be described thus: ThT fluorescence fibrillization assay at […]; no inhibition of Aβ oligomerization. Further details: gene APP; Aβ1-40. The following applies: read-out: Aβ fibril inhibition (%).
Target sequence in this assay (P05067 672-711): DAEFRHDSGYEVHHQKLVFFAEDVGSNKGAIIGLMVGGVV
In another assay the target is T2, tau (tau40) (Homo sapiens, UniProt P10636).
T2 construct: gene MAPT; Human tau40, tag-free, expressed in E. coli
The assay can be described thus: ThS fluorescence fibrillization assay (heparin-containing buffer); […] inhibition at […], […] at […]. The following applies: read-out: Tau fibril inhibition (%).

Assay [2] has as its target T1, amyloid-beta (Aβ). The assay can be described thus: Aβ oligomerization ELISA (biotinylated Aβ[…]-42); also ThT fibrillization, […] inhibition at […]. Further details: gene APP; biotinylated Aβ1-42 (oligomerization); Aβ1-40 (fibrillization). For orientation: ELISA stands for enzyme-linked immunosorbent assay.
Target sequence in this assay (P05067 672-713): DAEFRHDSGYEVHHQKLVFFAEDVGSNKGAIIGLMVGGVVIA
The target of assay [3] is T1, amyloid-beta (Aβ). The description is as above. Further details: gene APP; biotinylated Aβ1-42 (oligomerization); Aβ1-40 (fibrillization). This is another data set of the same source.
Target sequence in this assay (P05067 672-713): as above

Read-outs that look alike come from different tables or passages of the source.

T2 sequence (P10636 2-441 isoform P10636-8): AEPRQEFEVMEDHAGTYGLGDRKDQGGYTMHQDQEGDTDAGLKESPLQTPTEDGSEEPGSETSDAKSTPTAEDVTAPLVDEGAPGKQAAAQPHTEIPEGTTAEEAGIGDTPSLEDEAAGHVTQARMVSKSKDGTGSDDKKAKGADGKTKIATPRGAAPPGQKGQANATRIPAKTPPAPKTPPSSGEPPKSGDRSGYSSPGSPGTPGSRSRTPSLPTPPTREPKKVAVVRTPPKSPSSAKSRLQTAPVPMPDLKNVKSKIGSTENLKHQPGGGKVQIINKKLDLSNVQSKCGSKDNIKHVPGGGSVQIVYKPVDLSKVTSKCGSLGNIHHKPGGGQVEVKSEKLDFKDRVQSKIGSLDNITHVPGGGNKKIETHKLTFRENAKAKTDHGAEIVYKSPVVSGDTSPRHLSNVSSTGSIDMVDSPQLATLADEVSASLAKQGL

Usually inhibition stands for how much of the control response was suppressed. On to `O=C(/C=C/c1ccc(O)c(O)c1)O[C@@H]1C[C@](O)(C(=O)O)C[C@@H](O)[C@H]1O` [compound 2, Chlorogenic acid], for which the inhibition at 100 µM on amyloid-beta (Aβ) [1] is 97.7 ± 0.7%. As to `O=C(O)/C=C/c1ccc(O)c(O)c1` [compound 4, Caffeic acid], the inhibition at 100 µM on amyloid-beta (Aβ) [1] was 99.4 ± 0.9%.

The IC50 is the concentration needed to halve the response being measured. Read a high IC50 as a need for much substance. As for `CC1CC(c2ccc(O)c(O)c2)c2cc(O)c(O)cc21` (mixture of isomers) [compound 6, Phenylindane], the inhibition at 100 µM at tau (tau40) came out at 95.2 ± 1.7%. In addition, at amyloid-beta (Aβ) [2], the IC50 turned out to be 42.1 ± 1.4 µM. On amyloid-beta (Aβ) [3], `O=c1c(O)c(-c2ccc(O)c(O)c2)oc2cc(O)cc(O)c12` [compound 5, Quercetin] came in with a 50% inhibitory concentration (IC50) of 10.3 ± 1.1 µM.

Values taken from publication PMC6194148, “Phenylindanes in Brewed Coffee Inhibit Amyloid-Beta and Tau Aggregation” (Frontiers in Neuroscience, 2018).
